From article doi:10.1101/2025.11.04.686469, “Discovery of Host-Directed Small Molecules with Broad Anti-Leishmanial Efficacy” (bioRxiv, 2025) come the findings set out here.

≈ marks a conversion by molar mass, not a printed value. Read-outs that look alike come from different tables or passages of the source.

Data set [1] concerns THP-1 macrophages. As to the kind of experiment: Effect of compounds on host cell viability (MTT). Format: cell-based. Summed up: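 THP-1 cells were differentiated with 150 nM PMA for 72 h, then exposed to compounds at 1–50 μM for 24 h; selected compounds were also run at 1–300 μM for 72 h. MTT at 0.5 mg/mL was added for 2 h at 37 °C, and formazan absorbance was read at 560 nm minus 670 nm.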

Data set [2] relates to intracellular L. donovani amastigotes. The data set can be described thus: Luminescent-based evaluation of intracellular anti-leishmanial activity in THP-1 macrophages. The format is cell-based, Leishmania donovani. Summed up: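 PMA-differentiated THP-1 macrophages (150 nM, 72 h) were infected 18 h with firefly luciferase-expressing L. donovani LV82 promastigotes, then washed. Infected cells were treated with compounds at 0.1-10 μM for 72 h. Surviving intracellular amastigotes were quantified by firefly luciferase luminescence after cell lysis and 10 min substrate incubation at room temperature.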

Data set [3] concerns extracellular L. donovani promastigotes. As to the kind of experiment: Effect of compounds on promastigote viability (resazurin assay). The format is cell-based, Leishmania donovani. The note with it: 72-hour incubation, resazurin assay; read-out: Extracellular L. donovani promastigotes MIC50. As for the experimental part:
The effect of compounds on extracellular promastigotes was evaluated using a resazurin-based assay as described previously. In short, late log phase Leishmania promastigotes were seeded in a 96 well plate at 1 x 10^5 parasites per well and treated with drugs (0.5 – 200 μM) for 72 hours at 25°C. Ten microliters of resazurin (0.02% w/v) were added to the treated parasites to achieve a final concentration of 0.002% w/v and incubated for 24 hours. Viability of the promastigotes was assessed by fluorescence (excitation 544 nm, emission 590 nm, SpectraMax M2, Molecular Devices).

For data set [4], the system named is intracellular L. donovani amastigotes. As to the kind of experiment: Image-based (Giemsa staining) evaluation of intracellular anti-leishmanial activity in bone marrow derived macrophages. The format is cell-based, Leishmania donovani. To be noted: Giemsa staining, 72-hour incubation, read-out: Intracellular L. donovani amastigotes IC50. Here is the method: Bone marrow derived macrophages (BMDMs) were isolated from BALB/c mice and cultured as previously described. […] Completely differentiated BMDMs are obtained after 7 days of culture with media change every 2 days. Harvested cells were seeded onto 10 mm glass cover slips at 5 x 10^5 cells/ well of a 24 well plate in DMEM media (without LCM) and allowed to adhere overnight. […] After infection, cells were washed three times with fresh media to remove extracellular promastigotes and treated with compounds for a 72-hour incubation. BMDM cells were then washed with phosphate buffered saline, fixed with ice-cold methanol, and stained with Giemsa (5% v/v in water). The cover slips with stained cells are mounted onto glass slides and imaged on EVOS XL (100X, Thermo Fisher Scientific). Leishmania amastigotes per 100 macrophages were determined in a blinded manner.

[5] abbreviates: THP-1 macrophages, 72-hour incubation, MTT assay, read-out: 72 hr viability of THP-1 macrophages LC50.
Where [6] appears, read: read-out: 24 hr viability of THP-1 macrophages 24h LC50, THP-1 macrophages, 24-hour incubation, MTT assay.
Where [7] appears, read: THP1 macrophages, luminescence assay, 72 hours of treatment, read-out: Intracellular L. donovani amastigotes Lum IC50.
Setting [8] is: read-out: 24h LC50, THP1 macrophages, 24-hour incubation, MTT assay (Supplemental Table 2).
[9] abbreviates: intracellular Leishmania donovani in THP1 macrophages, luminescence assay (Supplemental Table 2), read-out: Lum IC50.

Regarding `Nc1ccc(CNC2CCN(c3ccc(-n4nc(C(F)(F)F)cc4-c4ccc(-c5ccc(C(F)(F)F)cc5)cc4)cc3)C2)cc1` (stereo not shown) [Compound 23], the CC50 in data set [1] (setting [5]) was 6.9 µM; in data set [1] (setting [6]), 5.8 µM. For the same compound, the IC50 in data set [2] (setting [7]) came to 0.4 µM; in data set [4], 0.9 µM. Also, the MIC50 in data set [3] is on record as 4.0 µM (≈ 2.49 µg/mL).

In the case of `N[C@H]1CCN(c2ccc(-n3nc(C(F)(F)F)cc3-c3ccc(-c4ccc(C(F)(F)F)cc4)cc3)cc2)C1` [Compound 130], the CC50 in data set [1] (setting [5]) turned out to be 6.4 µM; in data set [1] (setting [6]) it was 4.2 µM. Besides, the IC50 in data set [2] (setting [7]) came out at 0.2 µM; in data set [4], 1.6 µM. Also, in data set [3], the MIC50 came to 2.1 µM (≈ 1.08 µg/mL).

`NCC(=O)Nc1ccc(-n2cc(C(F)(F)F)nc2-c2ccc(-c3ccccc3)cc2)cc1` [Compound 50]: the CC50 in data set [1] (setting [5]) came to 42.7 µM; in data set [1] (setting [6]) it was 23.5 µM. The IC50 worked out at 1.5 µM in data set [2] (setting [7]) and 9.1 µM in data set [4]. For the same compound, in data set [3], the MIC50 is listed as 14.6 µM (≈ 6.37 µg/mL).

With `FC(F)(F)c1ccc(-c2ccc(-c3cc(C(F)(F)F)nn3-c3ccc(NC4CCNC4)cc3)cc2)cc1` (stereo not shown) [Compound 25], the CC50 in data set [1] (setting [5]) is 6.3 µM; in data set [1] (setting [6]) it was 28.9 µM. In addition, the IC50 in data set [2] (setting [7]) worked out at 0.7 µM; in data set [4] it was 2.5 µM. The MIC50 in data set [3] worked out at 2.1 µM (≈ 1.08 µg/mL).

Consider `FC(F)(F)c1ccc(-c2nc(C(F)(F)F)cn2-c2ccc(NC3CCNCC3)cc2)cc1` [Compound 408], for which the CC50 in data set [1] (setting [5]) amounted to 25.1 µM; in data set [1] (setting [6]) it was 25.4 µM. The results for the IC50 in data set [2] (setting [7]) and in data set [4] were 1.5 µM and 2.6 µM, respectively. For the same compound, the MIC50 in data set [3] stood at 0.9 µM (≈ 0.409 µg/mL).

With `O=C(Nc1ccc(-n2cc(C(F)(F)F)nc2-c2ccc(-c3ccccc3)cc2)cc1)C1CCN(Cc2ccccc2)C1` (stereo not shown) [Compound 86], the CC50 is 8.2 µM in data set [1] (setting [5]) and 21.9 µM in data set [1] (setting [6]). The values for the IC50 in data set [2] (setting [7]) and in data set [4] were 1.4 µM and 0.6 µM, respectively. Besides, the MIC50 in data set [3] is 3.2 µM (≈ 1.81 µg/mL).

With `CC(C)(C)C#Cc1ccc(-c2cc(C(F)(F)F)nn2-c2ccc(N3CCNCC3)cc2)cc1.Cl` [Compound 44], the CC50 in data set [1] (setting [5]) worked out at 14.5 µM; in data set [1] (setting [6]), 7.4 µM. Further, the figures for the IC50 in data set [2] (setting [7]) and in data set [4] were 0.9 µM and 1 µM, respectively. In addition, in data set [3], the MIC50 was 1.9 µM.

For `CC(C)(C)OC(=O)NC1CCN(c2ccc(-n3nncc3-c3ccc(C(F)(F)F)cc3)cc2)C1` (stereo not shown) [Compound 133], the CC50 was determined as 33.9 µM in data set [1] (setting [5]) and 29 µM in data set [1] (setting [6]). In addition, the IC50 in data set [2] (setting [7]) came to 0.9 µM; in data set [4], 1.7 µM. Moreover, the MIC50 in data set [3] was 13.0 µM (≈ 6.16 µg/mL).

As to `N[C@@H]1CCN(c2ccc(-n3nc(C(F)(F)F)cc3-c3ccc(-c4ccc(C(F)(F)F)cc4)cc3)cc2)C1` [Compound 129], the CC50 was determined as 6.2 µM in data set [1] (setting [5]) and 6.3 µM in data set [1] (setting [6]). Besides, the IC50 in data set [2] (setting [7]) is 0.1 µM; in data set [4], 0.4 µM. Moreover, the MIC50 in data set [3] is 1.7 µM (≈ 0.878 µg/mL).

As to `Oc1ccc(CNC2CCN(c3ccc(-n4nc(C(F)(F)F)cc4C4CCCCC4)cc3)CC2)cc1` [Compound 319], the CC50 in data set [1] (setting [5]) is 7.2 µM; in data set [1] (setting [6]) it was 6.4 µM. Further, the IC50 in data set [2] (setting [7]) worked out at 0.8 µM; in data set [4], 3.4 µM. Further, the MIC50 in data set [3] was determined as 0.8 µM (≈ 0.399 µg/mL).

For `FC(F)(F)c1cc(C2CCCCC2)n(-c2ccc(NC3CNC3)cc2)n1` [Compound 394], the CC50 in data set [1] (setting [8]) was found to be 30.9 µM. In addition, the half-maximal inhibitory concentration (IC50) in data set [2] (setting [9]) came out at 5.5 µM.

Take `NC1CCN(c2ccc(-n3nc(C(F)(F)F)c4ccc(-c5ccc(C(F)(F)F)cc5)cc43)cc2)C1` (stereo not shown) [Compound 141]: the CC50 in data set [1] (setting [8]) turned out to be 7.7 µM. Further, in data set [2] (setting [9]), the IC50 worked out at 3.6 µM.

In the case of `FC(F)(F)c1ccc(-c2ccc(-c3cc(C(F)(F)F)nn3-c3ccc(OC4CCN(Cc5ccccc5)C4)cc3)cc2)cc1` (stereo not shown) [Compound 145], the CC50 in data set [1] (setting [8]) was above 50 µM. Besides, the IC50 in data set [2] (setting [9]) was above 10 µM.

For the compound `O=C(CNCc1ccccc1)Nc1ccc(-n2nc(C(F)(F)F)cc2C2CCCCC2)cc1` [Compound 353], the CC50 in data set [1] (setting [8]) turned out to be 17.5 µM. The IC50 in data set [2] (setting [9]) came out at 4.2 µM.

For `NC1CCN(c2ccc(-n3ccnc3-c3ccc(-c4ccccc4)cc3)cc2)C1` (stereo not shown) [Compound 83], the CC50 in data set [1] (setting [8]) came to 6.2 µM. The IC50 in data set [2] (setting [9]) was 1.8 µM.

`CCCCCC(=O)NC1CCN(c2ccc(-n3nc(C(F)(F)F)cc3-c3ccc(-c4ccc(C(F)(F)F)cc4)cc3)cc2)C1` (stereo not shown) [Compound 63]: the CC50 in data set [1] (setting [8]) is above 50 µM. In addition, the IC50 in data set [2] (setting [9]) was above 10 µM.

`FC(F)(F)c1ccc(-c2ccc(-c3cc(C(F)(F)F)nn3-c3cccc(Br)c3)cc2)cc1` [Compound 190]: in data set [1] (setting [8]), the CC50 is above 50 µM. Also, the IC50 in data set [2] (setting [9]) is above 10 µM.

As for `CC(C)(C)OC(=O)NC1CCN(c2ccc(-n3nc(C(F)(F)F)cc3C3CCCCC3)cc2)C1` (stereo not shown) [Compound 230], the CC50 in data set [1] (setting [8]) was 9.5 µM. In data set [2] (setting [9]), the IC50 is above 10 µM.

As for `CS(=O)(=O)c1ccc(-n2nc(C(F)(F)F)cc2-c2ccc(-c3ccccc3)cc2)cc1` [Compound 174], the CC50 in data set [1] (setting [8]) is above 50 µM. Besides, the IC50 in data set [2] (setting [9]) was above 10 µM.

With `O=C(O)c1ccc(-n2cc(C(F)(F)F)nc2-c2ccc(-c3ccc(C(F)(F)F)cc3)cc2)c(F)c1` [Compound 176], in data set [1] (setting [8]), the CC50 was above 50 µM. In data set [2] (setting [9]), the IC50 was above 10 µM.

In the case of `N#Cc1ccc(CN2CC(Nc3ccc(-n4nc(C(F)(F)F)cc4C4CCCCC4)cc3)C2)cc1` [Compound 397], the CC50 in data set [1] (setting [8]) was 27.6 µM. In data set [2] (setting [9]), the IC50 came to 8.1 µM.

Regarding `O=[N+]([O-])c1ccc(-n2cnc3ccc(Br)cc32)cc1` [Compound 138], the CC50 in data set [1] (setting [8]) was above 50 µM. Also, the IC50 in data set [2] (setting [9]) was above 10 µM.

Take `NCC(=O)Nc1ccc(-n2cc(C(F)(F)F)nc2-c2ccc(C(F)(F)F)cc2)cc1` [Compound 409]: the CC50 in data set [1] (setting [8]) came to 35.2 µM. For the same compound, the IC50 in data set [2] (setting [9]) amounted to 8.8 µM.

Consider `N#Cc1ccc(-n2cc(C(F)(F)F)nc2-c2ccc(-c3ccc(C(F)(F)F)cc3)cc2)cc1` [Compound 177], for which the CC50 in data set [1] (setting [8]) is above 50 µM. Moreover, the IC50 in data set [2] (setting [9]) is above 10 µM.

Turning to `Oc1ccc(CNC2CCN(c3ccc(-n4nc(C(F)(F)F)cc4-c4ccc(-c5ccc(C(F)(F)F)cc5)cc4)cc3)C2)cc1` (stereo not shown) [Compound 18], in data set [1] (setting [8]), the CC50 came to 24.5 µM. Further, the IC50 in data set [2] (setting [9]) was 4 µM.

As to `FC(F)(F)c1cc(C2CCCCC2)n(-c2ccc(OC3CCN(Cc4ccccc4)CC3)cc2)n1` [Compound 371], in data set [1] (setting [8]), the CC50 is above 50 µM. Moreover, the IC50 in data set [2] (setting [9]) was determined as 8.9 µM.

On to `FC(F)(F)c1ccc(-c2cnnn2-c2ccc(Br)cc2)cc1` [Compound 131], for which, in data set [1] (setting [8]), the CC50 was 37.2 µM. Further, the IC50 in data set [2] (setting [9]) was above 10 µM.

For `FC(F)(F)c1ccc(-c2ccc(-c3cc(C(F)(F)F)nn3-c3ccc(NC4CCNCC4)cc3)cc2)cc1` [Compound 65], the CC50 in data set [1] (setting [8]) was 4 µM. Further, the IC50 in data set [2] (setting [9]) stood at 2.3 µM.

As for `Oc1ccccc1CN1CCC(Nc2ccc(-n3nc(C(F)(F)F)cc3-c3ccc(-c4ccc(C(F)(F)F)cc4)cc3)cc2)C1` (stereo not shown) [Compound 91], the CC50 in data set [1] (setting [5]) is 53.4 µM; in data set [1] (setting [6]), above 50 µM. Besides, the IC50 turned out to be 1.4 µM in data set [2] (setting [7]) and 2.4 µM in data set [4]. In data set [3], the MIC50 turned out to be 56.3 µM (≈ 35.1 µg/mL).
